The values that follow come from ChEMBL document CHEMBL1201862, “PubChem BioAssay data set” (2004).

For orientation: EC50 means the concentration giving half of the maximal effect. For orientation: AC50 means the concentration at which the activity in the assay is half-maximal. Usually IC50 stands for the concentration needed to halve the response being measured.

The target of experiment [1] is T1, Heat shock factor protein 1 (Mus musculus, UniProt P38532).
T1 sequence (P38532 whole entry): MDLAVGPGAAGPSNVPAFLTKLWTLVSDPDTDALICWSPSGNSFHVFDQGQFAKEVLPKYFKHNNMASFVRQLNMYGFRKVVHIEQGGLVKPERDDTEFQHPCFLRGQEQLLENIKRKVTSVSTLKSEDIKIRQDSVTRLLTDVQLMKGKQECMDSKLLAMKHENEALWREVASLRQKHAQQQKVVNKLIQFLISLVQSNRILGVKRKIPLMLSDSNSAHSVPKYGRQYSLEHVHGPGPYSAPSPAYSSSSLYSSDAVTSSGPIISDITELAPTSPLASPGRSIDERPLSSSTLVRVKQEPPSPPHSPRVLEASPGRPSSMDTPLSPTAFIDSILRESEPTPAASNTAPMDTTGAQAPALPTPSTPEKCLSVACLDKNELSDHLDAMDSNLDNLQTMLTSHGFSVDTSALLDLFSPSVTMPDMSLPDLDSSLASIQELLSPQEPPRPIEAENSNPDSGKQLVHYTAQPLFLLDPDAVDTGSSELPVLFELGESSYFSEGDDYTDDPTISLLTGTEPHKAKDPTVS
The experiment in a line: decrease of HSF1-responsive luciferase luminescence – cell-based, NIH3T3, dose retest, confirmation (AID 2382).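 Also: NIH3T3 fibroblasts with HSF1-driven luciferase reporter stressed by proteasome inhibitor MG132; luminescence from HSF1-driven luciferase expression after 8 hours of MG132 stress.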 The format is functional.

Experiment [2] in a line: cells. The following applies: HEK293.
A short description of experiment [3]: viability of PTEN-deleted HCT116 cells – cell-based, HCT116 PTEN knockout, dose response (AID 1047).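 Also: HCT116 colon tumor cells with PTEN knocked out; cells exposed to compound for 60 hours before readout; potency for loss of cell viability measured by luminescence.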 In kind it is functional.
The nature of experiment [4]: viability of HCT116 lacking mutant beta-catenin – cell-based, human colon tumor, dose response (AID 1045).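 Also: HCT116 colon tumor cells with beta catenin knocked out; cells exposed to compound for 60 hours.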 The format is functional.
A short description of experiment [5]: HEK-293T cell viability reduction – luminescence, B-cell screen hits, cytotoxicity control for BCR NF-kB inhibitor project, dose response (AID 489021).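 Also: HEK-293T cells carrying an NF-kB luciferase reporter; cells exposed to compound for about 14 hours before viability readout.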 In kind it is functional, cell-based.
Experiment [6] addresses COUP transcription factor 2 (Homo sapiens, UniProt P24468). The experiment can be described thus: Luminescence-based cell-based high throughput dose response assay to identify inhibitors of COUP-TFII (NR2F2). In kind it is functional.
Experiment [7] deals with 1-phosphatidylinositol 4,5-bisphosphate phosphodiesterase gamma-1 (Homo sapiens, UniProt P19174). The experiment can be described thus: Counterscreen for inhibitors of phospholipase C isozymes (PLC-B3): Fluorescence-based biochemical high throughput dose response assay to identify inhibitors of phospholipase C isozymes (PLC-gamma1). Background: A counterscreen serves to expose hits that act by an unwanted route or on another target.

Experiment [8] deals with 1-phosphatidylinositol 4,5-bisphosphate phosphodiesterase beta-3 (Homo sapiens, UniProt Q01970). The experiment can be described thus: Fluorescence-based biochemical high throughput dose response assay to identify inhibitors of phospholipase C isozymes (PLC-B3).
The nature of experiment [9]: cells. In kind it is functional, cell-based.
Experiment [10] addresses T2, Trace amine-associated receptor 1 (Homo sapiens, UniProt Q96RJ0).
T2 sequence (Q96RJ0 whole entry): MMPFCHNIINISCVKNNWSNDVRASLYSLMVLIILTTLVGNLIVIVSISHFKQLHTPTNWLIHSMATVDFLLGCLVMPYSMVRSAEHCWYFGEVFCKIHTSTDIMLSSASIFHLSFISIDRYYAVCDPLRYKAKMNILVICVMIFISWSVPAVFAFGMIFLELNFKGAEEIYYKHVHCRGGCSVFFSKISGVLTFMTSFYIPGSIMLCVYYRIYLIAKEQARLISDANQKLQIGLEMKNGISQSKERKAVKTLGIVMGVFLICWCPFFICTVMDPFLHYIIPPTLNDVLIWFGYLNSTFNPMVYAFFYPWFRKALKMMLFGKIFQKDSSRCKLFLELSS
The experiment can be described thus: Fluorescence-based cell-based high throughput dose response assay to identify agonists of the human trace amine associated receptor 1 (TAAR1). The format is functional.

Experiment [11] has as its target T2, Trace amine-associated receptor 1. The experiment can be described thus: Counterscreen for agonists of the human trace amine associated receptor 1 (hTAAR1): Fluorescence-based cell-based high throughput dose response assay to identify hTAAR1 agonist that also desensitize TAAR1 receptor response. The format is functional.
Experiment [12] is described as follows: cells. The format is functional, cell-based. The source holds these as a separate data set.
Experiment [13] deals with T3, Calpain-2 catalytic subunit (Sus scrofa, UniProt P43367).
T3 sequence (P43367 whole entry): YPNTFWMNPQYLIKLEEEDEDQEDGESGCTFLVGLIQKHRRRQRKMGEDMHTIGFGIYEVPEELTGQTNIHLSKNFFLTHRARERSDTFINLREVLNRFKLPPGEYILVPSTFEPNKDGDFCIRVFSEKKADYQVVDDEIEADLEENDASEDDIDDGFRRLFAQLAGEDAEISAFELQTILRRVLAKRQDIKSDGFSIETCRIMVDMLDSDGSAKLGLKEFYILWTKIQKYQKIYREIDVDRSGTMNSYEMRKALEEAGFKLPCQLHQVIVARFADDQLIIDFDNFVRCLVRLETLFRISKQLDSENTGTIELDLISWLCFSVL
The experiment in a line: m-calpain protease blockers, concentration series – biochemical, fluorogenic peptide substrate, dose response (AID 1420). The format is functional.

Experiment [14] in a line: potency of ADAM10 substrate cleavage blockers – biochemical, QFRET, dose response (AID 743254).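 Also: ADAM10 enzyme with the DM2 quenched FRET peptide as substrate; EDANS fluorescence gain as the protease cuts the substrate; inhibitor potency against ADAM10 proteolytic activity.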
Experiment [15] has as its target Disintegrin and metalloproteinase domain-containing protein 17 (Homo sapiens, UniProt P78536). The experiment in a line: inhibition of ADAM17 substrate cleavage – biochemical, quenched FRET substrate, counter-screen for ADAM10 exosite inhibitor project, dose response (AID 743253).
Experiment [16] in a line: activation of miR-122 Renilla sensor silencing – cell-based, Huh7 psiCHECK-miR122, Renilla luciferase, cherry-picked, dose response (AID 651956).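 Also: huh7 hepatoma cells stably carrying a psiCHECK-2 miR-122 sensor plasmid; renilla luciferase signal reporting endogenous miR-122 activity after 48 h compound exposure.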 The format is functional.
A short description of experiment [17]: general mammalian cell viability loss – inhibitor set, cherry-pick, set 2, cytotoxicity control for miR-122 modulator project, dose response (AID 720697). The format is functional, cell-based.
Experiment [18] is described as follows: general mammalian cell viability loss – activator set, cherry-pick, cytotoxicity control for miR-122 modulator project, dose response (AID 720690).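 Also: HEK293T human cells scored for general mammalian cytotoxicity.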 In kind it is functional, cell-based.
In experiment [19] the target is Endoplasmic reticulum aminopeptidase 1 (Homo sapiens, UniProt Q9NZ08). The experiment can be described thus: inhibition of human ERAP1 enzyme activity – biochemical, cherry-pick, set 2, plate reader, dose response (AID 743314).
A short description of experiment [20]: Trypanosoma cruzi growth suppression in host cells – NIH3T3 host cells, beta-gal luminescence, confirmation (AID 2044).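 Also: intracellular parasites grown in NIH/3T3 mouse fibroblasts as host cells; luminescent beta-galactosidase reporter signal from transgenic T. cruzi replicating inside host cells; inhibitors lower the luminescence signal.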 The format is functional, cell-based.
Experiment [21] is described as follows: NIH3T3 cell viability loss – ATP luminescence, mouse fibroblasts, counter-screen, dose response (AID 2010).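 Also: cells exposed to compound for about 90 hours before reading.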 In kind it is functional, cell-based.
Experiment [22] deals with Fructose-bisphosphate aldolase (Mycobacterium tuberculosis, UniProt P9WQA3). The experiment can be described thus: Fluorescence-based biochemical high throughput dose response assay for inhibitors of the fructose-bisphosphate aldolase (FBA) of M. tuberculosis. The format is functional.
Experiment [23] in a line: Late stage counterscreen for inhibitors of Trypanosoma brucei methionyl tRNA synthetase (MetRS): Luminescence-based cell-based high throughput dose response assay to identify compounds that are cytotoxic to Jurkat human T lymphocyte cells. The format is functional.

Activity calls are given as the source filed them.

Sequence of 1-phosphatidylinositol 4,5-bisphosphate phosphodiesterase gamma-1 (P19174 whole entry): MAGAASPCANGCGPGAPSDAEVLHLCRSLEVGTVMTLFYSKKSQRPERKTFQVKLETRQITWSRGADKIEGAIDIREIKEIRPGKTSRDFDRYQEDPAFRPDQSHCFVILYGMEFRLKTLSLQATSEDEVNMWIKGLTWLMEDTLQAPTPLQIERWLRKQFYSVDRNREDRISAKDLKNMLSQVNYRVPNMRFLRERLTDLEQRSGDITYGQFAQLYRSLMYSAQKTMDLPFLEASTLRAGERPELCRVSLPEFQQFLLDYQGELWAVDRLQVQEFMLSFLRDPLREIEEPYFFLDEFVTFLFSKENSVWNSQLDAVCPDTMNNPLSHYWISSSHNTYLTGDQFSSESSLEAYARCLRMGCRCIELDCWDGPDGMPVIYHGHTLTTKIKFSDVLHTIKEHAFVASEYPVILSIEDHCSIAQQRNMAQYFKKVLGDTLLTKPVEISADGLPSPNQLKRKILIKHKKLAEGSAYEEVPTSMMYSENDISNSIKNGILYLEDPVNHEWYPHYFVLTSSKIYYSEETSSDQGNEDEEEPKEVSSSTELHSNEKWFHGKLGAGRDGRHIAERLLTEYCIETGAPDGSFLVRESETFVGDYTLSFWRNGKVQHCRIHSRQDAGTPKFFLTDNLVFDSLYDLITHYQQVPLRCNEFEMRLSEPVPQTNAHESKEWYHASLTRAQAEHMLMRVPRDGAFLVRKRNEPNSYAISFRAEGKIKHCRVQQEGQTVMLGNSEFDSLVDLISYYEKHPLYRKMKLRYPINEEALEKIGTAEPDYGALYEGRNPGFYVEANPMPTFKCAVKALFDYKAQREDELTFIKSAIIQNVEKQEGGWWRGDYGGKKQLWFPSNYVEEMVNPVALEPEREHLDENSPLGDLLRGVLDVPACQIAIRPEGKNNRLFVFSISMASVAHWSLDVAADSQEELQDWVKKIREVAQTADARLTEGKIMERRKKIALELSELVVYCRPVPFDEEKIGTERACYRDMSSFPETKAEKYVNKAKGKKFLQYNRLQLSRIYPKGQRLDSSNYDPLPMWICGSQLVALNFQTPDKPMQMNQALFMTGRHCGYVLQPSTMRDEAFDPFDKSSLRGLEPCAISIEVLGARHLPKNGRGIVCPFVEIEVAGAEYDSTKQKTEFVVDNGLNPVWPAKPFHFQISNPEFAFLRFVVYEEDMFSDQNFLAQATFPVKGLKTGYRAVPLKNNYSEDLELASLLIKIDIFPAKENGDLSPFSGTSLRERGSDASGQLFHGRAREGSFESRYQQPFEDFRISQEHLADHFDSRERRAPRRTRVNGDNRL
Sequence of Disintegrin and metalloproteinase domain-containing protein 17 (P78536 whole entry, the tested form may be a part): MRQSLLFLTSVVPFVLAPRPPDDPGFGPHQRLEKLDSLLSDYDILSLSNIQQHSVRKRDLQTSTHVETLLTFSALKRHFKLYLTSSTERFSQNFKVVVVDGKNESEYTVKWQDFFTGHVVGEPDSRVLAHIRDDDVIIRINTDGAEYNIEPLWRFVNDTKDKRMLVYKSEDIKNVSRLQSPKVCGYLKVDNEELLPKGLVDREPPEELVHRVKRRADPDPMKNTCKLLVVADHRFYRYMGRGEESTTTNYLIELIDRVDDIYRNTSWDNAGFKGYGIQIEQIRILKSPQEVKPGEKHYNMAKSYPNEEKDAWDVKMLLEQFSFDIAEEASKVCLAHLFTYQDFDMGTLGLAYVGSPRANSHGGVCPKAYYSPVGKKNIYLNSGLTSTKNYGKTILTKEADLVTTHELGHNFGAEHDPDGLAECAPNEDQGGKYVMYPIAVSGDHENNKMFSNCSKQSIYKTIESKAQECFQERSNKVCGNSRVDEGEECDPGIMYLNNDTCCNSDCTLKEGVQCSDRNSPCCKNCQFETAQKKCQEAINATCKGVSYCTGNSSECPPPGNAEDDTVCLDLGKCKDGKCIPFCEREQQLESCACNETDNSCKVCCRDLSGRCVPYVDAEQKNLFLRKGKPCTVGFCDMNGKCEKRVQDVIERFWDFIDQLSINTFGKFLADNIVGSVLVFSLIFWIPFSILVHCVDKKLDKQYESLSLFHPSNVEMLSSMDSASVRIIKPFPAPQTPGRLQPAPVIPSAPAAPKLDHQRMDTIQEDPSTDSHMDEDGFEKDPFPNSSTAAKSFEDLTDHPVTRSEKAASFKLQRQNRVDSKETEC
Sequence of Endoplasmic reticulum aminopeptidase 1 (Q9NZ08 whole entry): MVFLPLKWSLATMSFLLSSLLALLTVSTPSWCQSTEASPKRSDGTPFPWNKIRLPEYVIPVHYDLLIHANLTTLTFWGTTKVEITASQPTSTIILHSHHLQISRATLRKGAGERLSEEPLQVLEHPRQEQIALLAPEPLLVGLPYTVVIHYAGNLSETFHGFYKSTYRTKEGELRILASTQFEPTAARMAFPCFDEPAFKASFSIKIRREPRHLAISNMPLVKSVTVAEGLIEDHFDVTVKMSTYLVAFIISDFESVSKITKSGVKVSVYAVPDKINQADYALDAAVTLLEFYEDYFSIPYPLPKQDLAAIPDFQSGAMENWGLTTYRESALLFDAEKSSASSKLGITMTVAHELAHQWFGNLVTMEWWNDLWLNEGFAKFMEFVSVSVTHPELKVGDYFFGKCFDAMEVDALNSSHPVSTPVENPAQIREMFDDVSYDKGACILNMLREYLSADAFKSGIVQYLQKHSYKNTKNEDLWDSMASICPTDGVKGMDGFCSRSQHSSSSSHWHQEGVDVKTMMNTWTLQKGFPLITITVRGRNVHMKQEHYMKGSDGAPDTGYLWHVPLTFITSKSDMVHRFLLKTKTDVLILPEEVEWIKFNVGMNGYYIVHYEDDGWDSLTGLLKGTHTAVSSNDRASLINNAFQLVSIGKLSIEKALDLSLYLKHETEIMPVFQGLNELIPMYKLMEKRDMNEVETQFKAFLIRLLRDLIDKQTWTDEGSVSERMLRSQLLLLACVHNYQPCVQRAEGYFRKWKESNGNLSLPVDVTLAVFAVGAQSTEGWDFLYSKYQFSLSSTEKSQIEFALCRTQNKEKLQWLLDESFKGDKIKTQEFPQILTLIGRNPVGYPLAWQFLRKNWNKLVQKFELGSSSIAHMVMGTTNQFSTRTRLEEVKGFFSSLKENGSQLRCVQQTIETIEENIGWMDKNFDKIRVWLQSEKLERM
Sequence of COUP transcription factor 2 (P24468 whole entry): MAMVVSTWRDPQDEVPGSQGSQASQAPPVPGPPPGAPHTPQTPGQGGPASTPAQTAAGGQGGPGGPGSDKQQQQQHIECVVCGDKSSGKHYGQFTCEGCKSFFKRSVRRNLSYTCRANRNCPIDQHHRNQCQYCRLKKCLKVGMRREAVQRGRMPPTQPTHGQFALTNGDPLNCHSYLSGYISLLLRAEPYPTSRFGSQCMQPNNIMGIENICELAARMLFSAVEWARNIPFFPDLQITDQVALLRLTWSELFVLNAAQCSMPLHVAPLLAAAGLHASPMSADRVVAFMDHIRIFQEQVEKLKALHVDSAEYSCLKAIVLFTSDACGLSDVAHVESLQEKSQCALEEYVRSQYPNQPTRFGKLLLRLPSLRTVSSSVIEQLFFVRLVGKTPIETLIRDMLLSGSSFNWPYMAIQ
Sequence of 1-phosphatidylinositol 4,5-bisphosphate phosphodiesterase beta-3 (Q01970 whole entry): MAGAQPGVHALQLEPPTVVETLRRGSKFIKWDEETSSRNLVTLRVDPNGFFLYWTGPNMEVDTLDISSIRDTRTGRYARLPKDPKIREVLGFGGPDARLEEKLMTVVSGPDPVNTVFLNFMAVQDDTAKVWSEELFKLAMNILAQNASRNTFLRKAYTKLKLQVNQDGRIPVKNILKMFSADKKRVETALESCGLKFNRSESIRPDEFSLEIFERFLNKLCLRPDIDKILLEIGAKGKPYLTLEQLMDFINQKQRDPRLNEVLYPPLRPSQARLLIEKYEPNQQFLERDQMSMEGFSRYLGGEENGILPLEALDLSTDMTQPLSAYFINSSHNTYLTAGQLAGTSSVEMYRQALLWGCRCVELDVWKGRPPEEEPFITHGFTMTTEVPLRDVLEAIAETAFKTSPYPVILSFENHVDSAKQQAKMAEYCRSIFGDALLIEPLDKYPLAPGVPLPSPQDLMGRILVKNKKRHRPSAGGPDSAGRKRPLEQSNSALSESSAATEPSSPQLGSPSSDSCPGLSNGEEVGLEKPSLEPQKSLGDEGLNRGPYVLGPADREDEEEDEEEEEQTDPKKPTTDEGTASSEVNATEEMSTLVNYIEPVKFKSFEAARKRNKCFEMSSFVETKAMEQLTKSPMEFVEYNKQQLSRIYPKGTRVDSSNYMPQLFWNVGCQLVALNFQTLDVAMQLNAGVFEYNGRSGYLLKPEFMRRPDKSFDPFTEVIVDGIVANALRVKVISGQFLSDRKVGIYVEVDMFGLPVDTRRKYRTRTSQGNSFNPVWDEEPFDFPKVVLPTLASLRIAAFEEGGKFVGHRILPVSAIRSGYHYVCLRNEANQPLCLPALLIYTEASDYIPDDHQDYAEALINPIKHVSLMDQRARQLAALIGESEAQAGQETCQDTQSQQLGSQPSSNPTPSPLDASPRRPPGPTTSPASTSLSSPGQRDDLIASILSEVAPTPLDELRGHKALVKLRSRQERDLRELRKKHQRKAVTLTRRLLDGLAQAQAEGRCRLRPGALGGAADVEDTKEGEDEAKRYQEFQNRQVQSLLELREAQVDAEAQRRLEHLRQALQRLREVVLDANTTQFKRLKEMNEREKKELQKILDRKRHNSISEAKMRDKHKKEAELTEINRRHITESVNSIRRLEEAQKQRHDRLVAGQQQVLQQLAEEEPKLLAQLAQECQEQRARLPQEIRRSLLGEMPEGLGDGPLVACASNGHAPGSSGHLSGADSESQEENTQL
Sequence of Fructose-bisphosphate aldolase (P9WQA3 whole entry): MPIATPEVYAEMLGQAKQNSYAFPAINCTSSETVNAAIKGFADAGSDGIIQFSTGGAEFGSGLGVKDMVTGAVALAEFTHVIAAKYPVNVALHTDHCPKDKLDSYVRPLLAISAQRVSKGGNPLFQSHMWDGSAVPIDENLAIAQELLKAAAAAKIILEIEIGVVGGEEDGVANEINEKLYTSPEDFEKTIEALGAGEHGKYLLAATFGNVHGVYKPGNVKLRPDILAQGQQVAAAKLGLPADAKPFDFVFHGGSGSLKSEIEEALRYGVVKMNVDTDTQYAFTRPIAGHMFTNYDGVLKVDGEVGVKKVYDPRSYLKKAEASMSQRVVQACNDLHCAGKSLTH

For `Cc1cc(-c2ccccc2)c2ccc(NC(=O)C(C)(C)C)nc2n1`, the EC50 in [1] was > 195 µM (not active). Moreover, the AC50 in “cells [2]” was > 52 µM (inactive).

As for `CN(CC1CCCO1)S(=O)(=O)c1ccc(C(=O)Nc2nc3cc4c(cc3s2)OCO4)cc1` (stereo not drawn), the EC50 is 9.25 µM (active) in [3] and 6.11 µM (active) in experiment [4]. The IC50 in experiment [5] is > 80 µM (inactive); in experiment [6], 2.68 µM (active).

Regarding `CCn1c(=S)sc2c(=O)n(CC(=O)Nc3cccc(Cl)c3)c(C)nc21`, the IC50 in [7] and in [8] was > 122 µM (inactive) throughout.

Take `Fc1ccccc1N1CCN(C(c2cccs2)c2nnnn2CCc2ccccc2)CC1` (stereo not drawn): the results for the IC50 (in the experiment “cells [9]”; in experiment [11]) were > 29.9 µM (inactive) and 6.73 µM (active), respectively. For the same molecule, the EC50 in experiment [10] is 4.06 µM (active); in the experiment “cells [12]”, > 29.9 µM (inactive).

With `O=C(COC(=O)CCCSc1nc2ccccc2[nH]1)Nc1ccc(Oc2ccccc2)cc1`, the IC50 in [13] was 7.16 µM (not active); in experiment [14] it was 8.39 µM (active); in [15], > 69.5 µM (inactive).

For `CCOC(=O)N1CCC(NC(=O)c2ccc3c(c2)sc2nc(-c4ccccc4)cn23)CC1`, the AC50 was 1.26 µM (active) in experiment [16], 13.6 µM (active) in experiment [17] and 12.3 µM (active) in [18].

Regarding `Cc1cc(N(C)Cc2ccccc2)nc2cc(O)ccc12`, in [19], the AC50 was 11.3 µM (active).

On to `Nc1nc2n(n1)C(c1cccs1)CC(c1ccc(Br)cc1)N2` (stereo not drawn), for which the EC50 was 4.37 µM (active) in experiment [20] and > 60 µM (not active) in experiment [21]. Further, the 50% inhibitory concentration (IC50) in experiment [22] is 4.61 µM (active).

Regarding `O=C(CN1CCSC1=NCc1ccccc1)c1ccc(Cl)c(Cl)c1`, in experiment [23], the IC50 was 83.2 µM (inactive).
